The text below walks through data of paper PMC8929364, “Metopimazine is primarily metabolized by a liver amidase in humans” (Pharmacology Research & Perspectives, 2021).

A short description of data set [1]: Incubation of MPZ in human intestine S9. The class given is in vitro ADME. The conditions noted are these: 2.5 µM MPZ, human intestine S9 1 mg/ml, NADPH, 60 min. As to the method: (§1) An initial experiment was conducted with S9 fractions from liver and intestine to assess the role of liver and intestinal enzymes in the metabolism of MPZ. The reaction mixture contained 2.5 µM MPZ, pooled human liver or intestine S9 fraction (1 mg/ml S9 protein), 100 mM KPi buffer (pH 7.4). The reaction mixture was pre‐incubated for 3–5 min at 37°C in a humidified incubator filled with 5% CO2 followed by the addition of NADPH (1 mM) to initiate the reaction. The reaction was incubated for 0 and 60 min. The total percentage of organic solvent in the incubation mixture was ≤0.1%. The reactions were terminated by the addition of sample mixture of acetonitrile and ethanol (90:10, v/v). The positive control substrate, 7‐EC, was incubated in triplicate in an identical manner as MPZ for S9 fractions.
(§2) The degree of disappearance of each analyte was evaluated by comparing the PAR of analyte to IS or concentration in different sampling time points to the PAR of time zero, (t = 0, 100%). The percent of parent remaining values were calculated according to the following equation: %parentremaining=(meanconcentrationorPARateachsamplingtimepoint/meanconcentrationorPARoftimezero)×100

The next data set addresses T1, rhFMO5 (Homo sapiens, UniProt P49326).
T1 construct: purchased Corning Inc
T1 sequence (P49326 1-533): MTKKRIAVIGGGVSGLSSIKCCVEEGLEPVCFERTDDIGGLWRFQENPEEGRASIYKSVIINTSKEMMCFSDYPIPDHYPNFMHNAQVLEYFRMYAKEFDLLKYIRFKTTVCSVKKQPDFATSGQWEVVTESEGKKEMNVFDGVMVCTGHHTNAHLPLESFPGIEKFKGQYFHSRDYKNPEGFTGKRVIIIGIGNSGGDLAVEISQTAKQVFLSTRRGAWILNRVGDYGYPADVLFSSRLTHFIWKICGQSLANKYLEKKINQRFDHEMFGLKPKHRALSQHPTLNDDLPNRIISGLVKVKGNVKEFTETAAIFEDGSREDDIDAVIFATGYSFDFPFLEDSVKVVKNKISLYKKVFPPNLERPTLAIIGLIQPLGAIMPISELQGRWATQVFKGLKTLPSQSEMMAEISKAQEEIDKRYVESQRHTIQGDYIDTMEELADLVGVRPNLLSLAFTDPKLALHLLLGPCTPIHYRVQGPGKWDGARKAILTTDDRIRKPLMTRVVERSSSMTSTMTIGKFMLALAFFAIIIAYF
In words: Incubation of MPZ with recombinant FMO: FMO5. It counts as in vitro ADME. The note with it: 1 µM MPZ, pH 8.4. As to the method:
(§3) MPZ at 1.0 µM was incubated in triplicate with individual recombinant FMO (Supersomes™ for FMO 1, FMO3, and FMO5). Protein concentrations for all rFMO isoforms were 0.05 mg/ml. A positive control (benzydamine, 100 µM) was incubated for 20 min. The reaction mixture containing MPZ or FMO substrate, KPi buffer (pH 8.4), and FMO Supersomes™ was pre‐incubated at 37°C for 3–5 min. All other procedures were the same as described previously. The negative control reactions were incubated absence of NADPH.

Data set [2] is described as follows: Incubation of MPZ in human liver S9. The note with it: 2.5 µM MPZ, human liver S9 1 mg/ml, NADPH, 60 min. It counts as in vitro ADME. The protocol:
as §1, §2

A short description of data set [3]: Incubation of MPZ with human kidney microsomes (HKM). The note with it: pH 8.4, NADPH, HKM 0.5 mg/ml, 60 min. It counts as in vitro ADME. As to the method: MPZ, at 1.0 and 10.0 µM, was incubated with HLM or HKM to determine the contribution of microsomal FMOs on the metabolism of MPZ.
A reaction mixture containing KPi buffer (pH 8.4), HLM or HKM (0.5 mg/ml protein) and MPZ (1.0 and 10.0 µM) was pre‐incubated for 3–5 min at 37°C. The reaction was initiated by the addition of NADPH into the reaction mixture. The reaction was conducted for 0 and 60 min. A positive control (benzydamine, 100 µM) was incubated in duplicate for 0 and 20 min. Parallel incubation was conducted by adding 1 mM methimazole, a non‐specific FMO inhibitor, under identical conditions. Heat‐inactivated microsomes (50°C for at least 5 min) was incubated under identical conditions negative control. All other procedures were the same as described previously.

Another data set concerns the target T2, rhFMO3 (Homo sapiens, UniProt P31513).
T2 construct: purchased Corning Inc
T2 sequence (P31513 1-532): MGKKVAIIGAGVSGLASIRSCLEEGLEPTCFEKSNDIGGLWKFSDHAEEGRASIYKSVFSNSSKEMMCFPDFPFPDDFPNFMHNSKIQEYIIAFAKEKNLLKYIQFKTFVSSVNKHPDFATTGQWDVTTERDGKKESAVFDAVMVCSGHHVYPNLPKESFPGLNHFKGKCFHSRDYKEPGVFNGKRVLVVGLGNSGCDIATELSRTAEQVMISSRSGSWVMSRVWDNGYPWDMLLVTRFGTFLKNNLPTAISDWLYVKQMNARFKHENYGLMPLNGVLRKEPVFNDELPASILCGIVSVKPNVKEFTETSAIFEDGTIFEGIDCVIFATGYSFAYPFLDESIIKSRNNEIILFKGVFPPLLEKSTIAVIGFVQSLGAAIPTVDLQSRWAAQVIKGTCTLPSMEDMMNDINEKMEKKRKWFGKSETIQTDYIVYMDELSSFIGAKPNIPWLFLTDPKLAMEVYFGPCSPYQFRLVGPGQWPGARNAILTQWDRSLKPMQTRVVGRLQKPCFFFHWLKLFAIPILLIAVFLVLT
Kind of data set: Incubation of MPZ with recombinant FMO: FMO3. It counts as in vitro ADME. The conditions noted are these: 1 µM MPZ, pH 8.4. The protocol: as §3

The test system of data set [4] is human liver microsomal amidase. In words: Incubations with heat-treated HLM for microsomal hydrolase/amidase activity, with and without BNPP. It counts as in vitro ADME. The conditions noted are these: 10 µM MPZ, pH 7.4, 8.4 and 9.4, 60 min. The protocol: Prior to the reaction for amidase activity, the reaction mixture containing KPi buffer (pH 7.4, 8.4, or 9.4) and HLM was pre‐incubated at 50°C for 5 min to inactivate CYP and FMO activities in HLM. The mixture was placed on ice to cool down. An aliquot was taken out which was considered as t = 0 min incubation. Then 10 µM MPZ was added into the remaining mixture and incubated at 37°C on an orbital shaker for 60 min. A parallel set of incubations was conducted with 10 µM MPZ in the presence at 2 and 16 µM, of BNPP (a known inhibitor of amidase). All reactions were in triplicate. The total percentage of organic solvent in the incubation mixture was ≤0.1%. The reactions were terminated by the addition of chilled acetonitrile: methanol, 90:10, (v/v). The samples were vortex‐mixed and stored at ≤−70°C and were subjected analyzed by LC–MS/MS.

Another data set concerns human D2 receptor. Further details: method as in earlier work. The conditions noted are these: cited from earlier work.

With `CS(=O)(=O)c1ccc2c(c1)N(CCCN1CCC(C(N)=O)CC1)c1ccccc1S2` [MPZ, metopimazine], in data set [1], the “metabolism in human intestine S9” value is “virtually no metabolism”. For the same compound, the “metabolism by rhFMO5” value at rhFMO5 is reported as “did not metabolize MPZ”. Also, the “percent of MPZ disappeared” value in data set [2] is “approximately 30%”. In data set [3], the “metabolite formation in HKM” value is “did not produce any metabolites”. In addition, the “metabolism by rhFMO3” value at rhFMO3 is “did not metabolize MPZ”.

`CS(=O)(=O)c1ccc2c(c1)N(CCCN1CCC(C(=O)O)CC1)c1ccccc1S2` [MPZA, metopimazine acid]: the “pH dependence of MPZA formation in HLM” value in data set [4] is on record as “faster the higher the pH”. In addition, the “fold less potent at the human D2 receptor compared to the parent” value in the data set with human D2 receptor is reported as “about 200 fold”.
